45 molecules from patent US4346094A, “3-Aryl-5-isothiazolecarboxylic acids and related compounds used to lower uric acid levels” (Eli Lilly and Company, priority 1980, dated 1982) can be followed below.

The target in the assay is T1, xanthine oxidase (Bos taurus, UniProt P80457).
T1 construct: purchased Sigma Chemical Company, St. Louis, Mo; host or cells: milk (grade III, chromatographically purified)
The assay is described as follows: in vitro xanthine oxidase assay (rate of uric acid formation from xanthine). The class given is biochemical. The protocol: Since uric acid is produced by the oxidation of, first, hypoxanthine to xanthine and, second, of xanthine to uric acid via the enzyme, xanthine oxidase, an inhibitor of xanthine oxidase in vivo would obviously decrease the uric acid concentrations in the blood.
Xanthine oxidase activity was measured at room temperature by the rate of uric acid formation from xanthine substrate. In a total volume of 1 ml., the incubation mixture contained 50 micromoles of potassium phosphate buffer at pH 7.4, 0.05 micromoles of xanthine and 0.01 units of enzyme preparation (chromatographically purified milk xanthine oxidase, grade III, obtained from Sigma Chemical Company, St. Louis, Mo.). The absorbence change at 292 nm was recorded by a Gilford recording spectrophotometer and the uric acid formed was calculated using an extinction coefficient of 12 mM^-1 Cm^-1 at 292 nm.

Where [1] appears, read: milk xanthine oxidase 0.01 units, 0.05 micromoles xanthine in 1 ml, pH 7.4, room temperature, 292 nm, read-out: I50 (concentration of drug which inhibits 50% of the oxidation of xanthine to uric acid by the xanthine oxidase preparation) (converted).

Structures are written as SMILES. Where two headings read alike, the source gives them in different places.

T1 sequence (P80457 whole entry): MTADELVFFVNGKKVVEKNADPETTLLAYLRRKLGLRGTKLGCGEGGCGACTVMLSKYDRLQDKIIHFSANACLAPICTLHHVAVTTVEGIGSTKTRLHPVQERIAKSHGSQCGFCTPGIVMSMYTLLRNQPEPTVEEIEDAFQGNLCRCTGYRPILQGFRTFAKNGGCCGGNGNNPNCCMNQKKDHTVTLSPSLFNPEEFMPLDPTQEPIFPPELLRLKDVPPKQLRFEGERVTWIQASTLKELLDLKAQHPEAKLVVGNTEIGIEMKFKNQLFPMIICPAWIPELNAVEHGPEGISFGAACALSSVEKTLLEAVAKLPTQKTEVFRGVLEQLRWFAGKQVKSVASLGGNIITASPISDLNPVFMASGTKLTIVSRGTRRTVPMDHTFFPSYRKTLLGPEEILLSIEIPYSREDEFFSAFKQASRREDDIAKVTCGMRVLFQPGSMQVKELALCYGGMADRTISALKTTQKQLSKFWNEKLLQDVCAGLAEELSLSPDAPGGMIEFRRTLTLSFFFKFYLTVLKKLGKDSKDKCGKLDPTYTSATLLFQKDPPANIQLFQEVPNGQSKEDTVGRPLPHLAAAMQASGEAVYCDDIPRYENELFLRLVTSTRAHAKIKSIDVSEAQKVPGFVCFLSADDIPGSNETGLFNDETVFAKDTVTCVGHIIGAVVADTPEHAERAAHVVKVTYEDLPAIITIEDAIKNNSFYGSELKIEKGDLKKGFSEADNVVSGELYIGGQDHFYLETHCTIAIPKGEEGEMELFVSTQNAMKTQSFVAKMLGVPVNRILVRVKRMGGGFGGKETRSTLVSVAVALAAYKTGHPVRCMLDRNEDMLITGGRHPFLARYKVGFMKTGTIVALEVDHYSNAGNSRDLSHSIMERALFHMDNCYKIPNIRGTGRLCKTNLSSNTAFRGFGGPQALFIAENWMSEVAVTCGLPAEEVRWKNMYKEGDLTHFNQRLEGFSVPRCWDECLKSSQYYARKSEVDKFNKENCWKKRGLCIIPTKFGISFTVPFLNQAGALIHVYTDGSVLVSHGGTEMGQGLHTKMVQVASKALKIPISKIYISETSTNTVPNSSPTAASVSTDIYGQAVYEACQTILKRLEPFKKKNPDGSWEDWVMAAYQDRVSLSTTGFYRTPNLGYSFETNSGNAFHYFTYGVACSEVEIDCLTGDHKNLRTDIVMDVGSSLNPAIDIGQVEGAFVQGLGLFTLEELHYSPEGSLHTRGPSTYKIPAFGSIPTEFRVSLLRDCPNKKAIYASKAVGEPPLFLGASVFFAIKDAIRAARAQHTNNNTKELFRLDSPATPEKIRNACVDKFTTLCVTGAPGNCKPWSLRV

On to `Nc1c(-c2ccc3c(c2)OCO3)nsc1C(=O)O` [3,4-methylenedioxy, 3-(1,3-benzodioxyl-5-yl)-4-amino-5-isothiazolecarboxylic acid], for which, under setting [1], the IC50 was 0.492 µM. On the same count and under the same terms, the value for `Nc1c(-c2cccs2)nsc1C(=O)O` [Ar=2-thienyl, 3-(2-thienyl)-4-amino-5-isothiazolecarboxylic acid] was 3.31 µM; that for `Nc1c(-c2cccnc2)nsc1C(=O)O` [Ar=3-pyridinyl, 3-(3-pyridyl)-4-amino-5-isothiazolecarboxylic acid] was 1.49 µM.

Regarding `O=C(O)c1snc(-c2cccc(C(F)(F)F)c2)c1F` [R=3-CF3, X=F, 3-(3-trifluoromethylphenyl)-4-fluoro-5-isothiazolecarboxylic acid], under setting [1], the IC50 is 0.0687 µM. The molecule `O=C(O)c1snc(-c2cccc(C(F)(F)F)c2)c1I` [R=3-CF3, X=I, 3-(3-trifluoromethylphenyl)-4-iodo-5-isothiazolecarboxylic acid] showed an IC50 of 0.238 µM. Consider `CNc1c(-c2cccc(C(F)(F)F)c2)nsc1C(=O)O` [R=3-CF3, X=NHCH3, 3-(3-trifluoromethylphenyl)-4-methylamino-5-isothiazolecarboxylic acid], for which, under setting [1], the IC50 is 0.562 µM. Still for that read-out and setting: the result for `COc1ccc(-c2nsc(C(=O)O)c2N)cc1C` [R=3-CH3, R^1=4-OCH3, 3-(4-methoxy-3-methylphenyl)-4-amino-5-isothiazolecarboxylic acid] reads 0.151 µM; that for `Cc1cccc(-c2nsc(C(=O)O)c2N)c1` [R=3-CH3, R^1=H, 3-(3-tolyl)-4-amino-5-isothiazolecarboxylic acid], 0.64 µM; that for `Cc1cccc(-c2nsc(C(=O)O)c2Cl)c1` [R=3-CH3, X=Cl, 3-(3-tolyl)-4-chloro-5-isothiazolecarboxylic acid], 0.134 µM. For the molecule `Nc1c(-c2ccc(Cl)c(Cl)c2)nsc1C(=O)O` [R=3-Cl, R^1=4-Cl, 3-(3,4-dichlorophenyl)-4-amino-5-isothiazolecarboxylic acid], the IC50 under setting [1] is 0.214 µM. The same measure, in the same setting: the value for `Nc1c(-c2cccc(Cl)c2)nsc1C(=O)O` [R=3-Cl, R^1=H, 3-(3-chlorophenyl)-4-amino-5-isothiazolecarboxylic acid] was 0.267 µM. As for `O=C(O)c1snc(-c2cccc(Cl)c2)c1Br` [R=3-Cl, X=Br, 3-(3-chlorophenyl)-4-bromo-5-isothiazolecarboxylic acid], the IC50 under setting [1] is 0.0816 µM.

For the molecule `O=C(O)c1snc(-c2cccc(Cl)c2)c1Cl` [R=3-Cl, X=Cl, 3-(3-chlorophenyl)-4-chloro-5-isothiazolecarboxylic acid], the IC50 is 0.0693 µM. Regarding `O=C(O)c1cc(-c2cccc(Cl)c2)ns1` [R=3-Cl, X=H, 3-(3-chlorophenyl)-5-isothiazolecarboxylic acid], the IC50 under setting [1] was 0.334 µM. In the case of `O=C(O)c1snc(-c2cccc(Cl)c2)c1I` [R=3-Cl, X=I, 3-(3-chlorophenyl)-4-iodo-5-isothiazolecarboxylic acid], the IC50 under setting [1] was 0.903 µM. Same read-out and setting: the value for `COc1ccc(-c2nsc(C(=O)O)c2N)cc1F` [R=3-F, R^1=4-OCH3, 3-(3-fluoro-4-methoxyphenyl)-4-amino-5-isothiazolecarboxylic acid] was 0.0671 µM. Still for that read-out and setting: the result for `Nc1c(-c2cccc(F)c2)nsc1C(=O)O` [R=3-F, R^1=H, 3-(3-fluorophenyl)-4-amino-5-isothiazolecarboxylic acid] reads 1.26 µM; that for `O=C(O)c1snc(-c2cccc(F)c2)c1Cl` [R=3-F, X=Cl, 3-(3-fluorophenyl)-4-chloro-5-isothiazolecarboxylic acid], 0.116 µM. On to `COc1ccc(-c2nsc(C(=O)O)c2N)cc1OC` [R=3-OCH3, R^1=4-OCH3, 3-(3,4-dimethoxyphenyl)-4-amino-5-isothiazolecarboxylic acid], for which, under setting [1], the IC50 was 0.41 µM. Still for that read-out and setting: the value for `COc1cc(OC)cc(-c2nsc(C(=O)O)c2N)c1` [R=3-OCH3, R^1=5-OCH3, 3-(3,5-dimethoxyphenyl)-4-amino-5-isothiazolecarboxylic acid] was 0.0892 µM; that for `COc1cccc(-c2nsc(C(=O)O)c2N)c1` [R=3-OCH3, R^1=H, 3-(3-methoxyphenyl)-4-amino-5-isothiazolecarboxylic acid] was 1.16 µM. The same measure, in the same setting: the result for `COc1cccc(-c2nsc(C(=O)O)c2Cl)c1` [R=3-OCH3, X=Cl, 3-(3-anisyl)-4-chloro-5-isothiazolecarboxylic acid] reads 0.108 µM.

On to `COc1cccc(-c2cc(C(=O)O)sn2)c1` [R=3-OCH3, X=H, 3-(3-anisyl)-5-isothiazolecarboxylic acid], for which the IC50 under setting [1] was 3.74 µM.

On to `COc1cccc(-c2nsc(C(=O)O)c2I)c1` [R=3-OCH3, X=I, 3-(3-anisyl)-4-iodo-5-isothiazolecarboxylic acid], for which the IC50 under setting [1] was 1.72 µM. Same read-out and setting: the result for `Nc1c(-c2ccc(Br)cc2)nsc1C(=O)O` [R=4-Br, R^1=H, 3-(4-bromophenyl)-4-amino-5-isothiazolecarboxylic acid] reads 2.76 µM; that for `Nc1c(-c2ccc(C(F)(F)F)cc2)nsc1C(=O)O` [R=4-CF3, R^1=H, 3-(4-trifluoromethylphenyl)-4-amino-5-isothiazolecarboxylic acid], 0.624 µM; that for `Cc1ccc(-c2nsc(C(=O)O)c2N)cc1` [R=4-CH3, R^1=H, 3-(p-tolyl)-4-amino-5-isothiazolecarboxylic acid], 1.2 µM.

`Cc1ccc(-c2nsc(C(=O)O)c2Cl)cc1` [R=4-CH3, X=Cl, 3-(4-tolyl)-4-chloro-5-isothiazolecarboxylic acid]: the IC50 under setting [1] is 0.315 µM. The same measure, in the same setting: the result for `Nc1c(-c2ccc(Cl)cc2)nsc1C(=O)O` [R=4-Cl, R^1=H, 3-(4-chlorophenyl)-4-amino-5-isothiazolecarboxylic acid] reads 2.75 µM. `O=C(O)c1snc(-c2ccc(Cl)cc2)c1Br` [R=4-Cl, X=Br, 3-(4-chlorophenyl)-4-bromo-5-isothiazolecarboxylic acid] gave an IC50 of 0.314 µM. Take `O=C(O)c1snc(-c2ccc(Cl)cc2)c1Cl` [R=4-Cl, X=Cl, 3-(4-chlorophenyl)-4-chloro-5-isothiazolecarboxylic acid]: the IC50 under setting [1] was 0.365 µM. The same measure, in the same setting: the value for `O=C(O)c1cc(-c2ccc(Cl)cc2)ns1` [R=4-Cl, X=H, 3-(4-chlorophenyl)-5-isothiazolecarboxylic acid] was 1.96 µM.

Take `O=C(O)c1snc(-c2ccc(Cl)cc2)c1I` [R=4-Cl, X=I, 3-(4-chlorophenyl)-4-iodo-5-isothiazolecarboxylic acid]: under setting [1], the IC50 is 2.74 µM.

With `Nc1c(-c2ccc(F)cc2)nsc1C(=O)O` [R=4-F, R^1=H, 3-(4-fluorophenyl)-4-amino-5-isothiazolecarboxylic acid], under setting [1], the IC50 was 1.6 µM. The same measure, in the same setting: the result for `O=C(O)c1snc(-c2ccc(F)cc2)c1Cl` [R=4-F, X=Cl, 3-(4-fluorophenyl)-4-chloro-5-isothiazolecarboxylic acid] reads 0.202 µM; that for `CCOc1ccc(-c2nsc(C(=O)O)c2N)cc1` [R=4-OC2 H5, R^1=H, 3-(4-ethoxyphenyl)-4-amino-5-isothiazolecarboxylic acid], 0.106 µM; that for `CCCOc1ccc(-c2nsc(C(=O)O)c2N)cc1` [R=4-OC3 H7, R^1=H, 3-(4-propoxyphenyl)-4-amino-5-isothiazolecarboxylic acid], 0.0862 µM. In the case of `COc1ccc(-c2nsc(C(=O)O)c2N)cc1` [R=4-OCH3, R^1=H, 4-amino-3-(4-methoxyphenyl)-5-isothiazolecarboxylic acid], under setting [1], the IC50 is 0.559 µM. On the same count and under the same terms, the value for `COc1ccc(-c2nsc(C(=O)O)c2Cl)cc1` [R=4-OCH3, X=Cl, 3-(4-anisyl)-4-chloro-5-isothiazolecarboxylic acid] was 0.0519 µM; that for `COc1ccc(-c2cc(C(=O)O)sn2)cc1` [R=4-OCH3, X=H, 3-(4-anisyl)-5-isothiazolecarboxylic acid] was 0.276 µM; that for `CC(C)Oc1ccc(-c2nsc(C(=O)O)c2N)cc1` [R=4-OCH(CH3)2, R^1=H, 3-(4-isopropoxyphenyl)-4-amino-5-isothiazolecarboxylic acid] was 0.0683 µM. On to `Nc1c(-c2ccccc2)nsc1C(=O)O` [R=H, R^1=H, 3-phenyl-4-amino-5-isothiazolecarboxylic acid], for which the IC50 under setting [1] is 2.13 µM. Still for that read-out and setting: the result for `O=C(O)c1snc(-c2ccccc2)c1Cl` [R=H, X=Cl, 3-phenyl-4-chloro-5-isothiazolecarboxylic acid] reads 0.225 µM; that for `O=C(O)c1cc(-c2ccccc2)ns1` [R=H, X=H, 3-phenyl-5-isothiazolecarboxylic acid], 2.34 µM; that for `O=C(O)c1snc(-c2ccccc2)c1O` [R=H, X=OH, 3-phenyl-4-hydroxy-5-isothiazolecarboxylic acid], 0.203 µM.
